From paper PMC5708365, “Histone lysine methyltransferase structure activity relationships that allow for segregation of G9a inhibition and anti-Plasmodium activity” (MedChemComm, 2017)
pIC50: −log10 of the molar value. Like-named read-outs stand apart in the source and are kept apart here. Each block holds one compound with its values, some of them ahead of it.

Assays:
[1] = system: P. falciparum 3D7 strain parasites; assay: microbe, parasite or virus in culture; settings: Plasmodium falciparum, 3D7, 72 h, read-out: Pf3D7 IC50
HepG2 cells [2] = settings: read-out: HepG2 IC50; Tables ST1 and ST2
[3] = system: P. falciparum 3D7 strain parasites; settings: parasite-killing activity reported earlier, cited from earlier work; for pIC50: read-out: Pf3D7 IC50
G9a [4] = target: T1, G9a (Homo sapiens, UniProt Q96KQ7); settings: for pIC50: read-out: G9a IC50
T1 sequence (Q96KQ7 1-1210): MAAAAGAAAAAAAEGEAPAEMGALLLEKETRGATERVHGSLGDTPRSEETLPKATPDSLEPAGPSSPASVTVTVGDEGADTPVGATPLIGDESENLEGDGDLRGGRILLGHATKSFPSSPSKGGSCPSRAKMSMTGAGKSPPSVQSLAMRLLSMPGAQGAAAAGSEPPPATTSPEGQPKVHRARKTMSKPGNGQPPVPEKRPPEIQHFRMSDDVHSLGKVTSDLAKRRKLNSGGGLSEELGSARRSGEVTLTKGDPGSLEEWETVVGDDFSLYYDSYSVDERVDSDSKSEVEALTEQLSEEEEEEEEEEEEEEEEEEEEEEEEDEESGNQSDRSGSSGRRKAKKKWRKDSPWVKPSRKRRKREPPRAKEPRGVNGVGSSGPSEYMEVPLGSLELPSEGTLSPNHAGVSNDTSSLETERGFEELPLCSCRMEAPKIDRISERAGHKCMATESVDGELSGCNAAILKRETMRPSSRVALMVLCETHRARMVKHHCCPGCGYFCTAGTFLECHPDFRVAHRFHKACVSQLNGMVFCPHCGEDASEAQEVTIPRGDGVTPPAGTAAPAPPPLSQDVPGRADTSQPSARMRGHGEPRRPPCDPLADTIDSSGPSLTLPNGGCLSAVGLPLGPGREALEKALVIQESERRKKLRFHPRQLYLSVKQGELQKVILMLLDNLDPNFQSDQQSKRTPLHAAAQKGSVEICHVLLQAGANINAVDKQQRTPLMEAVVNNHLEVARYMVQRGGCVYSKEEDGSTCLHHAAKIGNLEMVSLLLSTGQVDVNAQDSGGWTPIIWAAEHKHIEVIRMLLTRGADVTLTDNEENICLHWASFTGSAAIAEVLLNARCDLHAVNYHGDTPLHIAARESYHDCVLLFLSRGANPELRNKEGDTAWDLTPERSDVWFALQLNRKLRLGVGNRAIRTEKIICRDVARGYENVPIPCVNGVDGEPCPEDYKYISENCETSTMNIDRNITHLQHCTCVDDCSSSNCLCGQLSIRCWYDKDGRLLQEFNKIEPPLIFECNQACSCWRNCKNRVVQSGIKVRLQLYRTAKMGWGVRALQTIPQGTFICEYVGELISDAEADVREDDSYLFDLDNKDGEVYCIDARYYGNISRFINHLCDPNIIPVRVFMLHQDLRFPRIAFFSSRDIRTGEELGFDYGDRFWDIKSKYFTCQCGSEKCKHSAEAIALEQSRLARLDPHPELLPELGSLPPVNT

[5] = system: synchronised P. falciparum parasites; assay: In vitro stage-dependent antimalarial activity; assay type: cell-based; settings: 10× IC50, three distinct 12 hour periods of the intra-erythrocytic life cycle; re-invasion and out-growth
Protocol: Stage-specific compound treatment effects were elucidated using highly synchronized parasites in 48-well plates with a starting parasitemia of 0.75% and a hematocrit of 2%. […] After treatment, parasites were washed with warm RPMI 1640 medium and placed back into culture without test compound for analysis of re-invasion after completion of the cell cycle in which treatment occurred. Washed parasites after treatment were also diluted 1 : 16 and allowed to grow without compound for an additional two cell cycles (4 days). Parasitemia after re-invasion or after 4 day growth was quantified on infected cells fixed in 0.025% glutaraldehyde and stained with 2× SYBR Green I (Lonza) in PBS.

[6] = system: H3K4me3 levels in P. falciparum 3D7 parasites; assay: Parasite histone methylation analysis (Western blot), H3K4me3; assay type: cell-based; settings: 12 h treatment, relative to DMSO control
Protocol: (§1) Parasites were treated with drugs for 12 h. After treatment, infected red blood cells were collected and lysed with PBS containing 0.15% saponin. Free parasites were lysed by bath sonication in 1% SDS-PBS and analysed by Western Blot. Blots were probed with primary antibodies specific for H3K4me3 (Abcam ab1012 1 : 1000), H3 core (Abcam ab1791, 1 : 3000) and H3K9me3 (Abcam ab8898, 1 : 1000) diluted in TBS-T (50 mM Tris pH 7.5, 150 mM NaCl, 0.05% Tween-20, 5% BSA), followed by anti-mouse HRP (GE NA931V) or anti-rabbit HRP (GE NA934V) secondary antibodies.

PfSET7 = assay: Initial activity assays using PfSET7; assay type: biochemical, P. falciparum; settings: data not shown
[7] = system: H3K9me3 levels in P. falciparum 3D7 parasites; assay: Parasite histone methylation analysis (Western blot), H3K9me3; assay type: cell-based; settings: 12 h treatment, relative to DMSO control
Protocol: as §1

[8] = system: P. falciparum 3D7 strain parasites; settings: P. falciparum 3D7, three-day SYBR Green I assay
HepG2 cells [9] = assay: cells; settings: Homo sapiens, HepG2, read-out: anti-HepG2 IC50
[10] = system: G9a activity in cells (H3K9me2 levels); settings: reduction of H3K9me2 levels, ICW; cited from earlier work
G9a [11] = target: T1, G9a; settings: read-out: G9a IC50; CLOT assay; cited from earlier work
[12] = SPA, 5 nM G9a, H3 1-25 peptide 0.8 μM, 3H-SAM 8 μM

pIC50 (HepG2 cells [2]): 4.82
G9a/Pf3D7 (G9a [4]; ratio of G9a IC50 to Pf3D7 IC50): > 6.6
pIC50 (G9a [4]; [12]): < 6.00
Structure (SMILES): COc1cc2nc(N3CCOCC3)nc(NC3CCN(Cc4ccccc4)C3)c2cc1OC (centres unmarked) [S15]
pIC50 ([3]; Tables ST1-ST4, ref 1 (supplement)): 6.82

Pf3D7 IC50 [8]: poor potency against Plasmodium
G9a IC50 (G9a [4]; [12]): good G9a inhibition
pIC50 (G9a [4]; [12]): 6.91
Structure (SMILES): COc1cc2nc(NCCCN(C)C)nc(NC3CCN(Cc4ccccc4)CC3)c2cc1OC [compound 17]

pIC50 (G9a [4]; [12]): < 4.30
Structure (SMILES): COc1cc2cc(N3CCC(OC)CC3)nc(NC3CCN(Cc4ccccc4)CC3)c2cc1OC [compound 86, N-(1-Benzylpiperidin-4-yl)-6,7-dimethoxy-3-(4-methoxypiperidin-1-yl)isoquinolin-1-amine]

pIC50 (G9a [4]; [12]): < 4.60
Structure (SMILES): COc1cc2cc(N3CCCCC3)nc(NC3CCN(Cc4ccccc4)CC3)c2cc1OC [compound 87, N-(1-Benzylpiperidin-4-yl)-6,7-dimethoxy-3-(piperidin-1-yl)isoquinolin-1-amine]

pIC50 (G9a [4]; [12]): 7.68
Structure (SMILES): COc1cc2nc(N3CCN(C)CC3)cc(NC3CCN(Cc4ccccc4)CC3)c2cc1OC [compound 89, N-(1-Benzylpiperidin-4-yl)-6,7-dimethoxy-2-(4-methylpiperazin-1-yl)quinolin-4-amine]
stage-dependent killing phenotype [5]: erythrocytic stage-independent killing phenotype
H3K4me3 levels [6]: decrease
H3K9me3 levels [7]: decrease

pIC50 (G9a [4]; [12]): 6.92
Structure (SMILES): COc1cc2nc(N3CCC(OC)CC3)cc(NC3CCN(Cc4ccccc4)CC3)c2cc1OC [compound 90, N-(1-Benzylpiperidin-4-yl)-6,7-dimethoxy-2-(4-methoxypiperidin-1-yl)quinolin-4-amine]
stage-dependent killing phenotype [5]: erythrocytic stage-independent killing phenotype
H3K4me3 levels [6]: decrease
H3K9me3 levels [7]: decrease

More lines, now with the values behind:

Structure (SMILES): CCN(CC)CCCC(C)Nc1ccnc2cc(Cl)ccc12 (centres unmarked) [Chloroquine]
pIC50 [1]: 8.10

Structure (SMILES): COc1cc2nc(N3CCCN(C)CC3)nc(NC3CCN(Cc4ccccc4)CC3)c2cc1OC [compound 1, reference compound]
stage-dependent killing phenotype [5]: erythrocytic stage-independent killing phenotype
H3K4me3 levels [6]: decrease
PfSET7 as target (PfSET7): PfSET7 not to be the target
H3K9me3 levels [7]: decrease

Structure (SMILES): COc1cc2nc(N3CCCN(C)CC3)nc(NC3CCN(C)CC3)c2cc1OC [compound 38]
Pf3D7 IC50 ([3]; P. falciparum 3D7): low Pf3D7 activity
pIC50 ([3]; P. falciparum 3D7): < 6.52

Structure (SMILES): COc1cc2nc(N3CCN(C)CC3)nc(NC3CCN(C)CC3)c2cc1OC [compound 39]
Pf3D7 IC50 ([3]; P. falciparum 3D7): low Pf3D7 activity
pIC50 ([3]; P. falciparum 3D7): < 6.52

Structure (SMILES): COc1cc2nc(N3CCCCC3)nc(NC3CCN(C)CC3)c2cc1OC [compound 40]
pIC50 (HepG2 cells [9]): < 5.00
pIC50 (G9a [4]; [12]): 6.23

Structure (SMILES): COc1cc2c(NC3CCN(C)CC3)nc(NCCCN(C)C)nc2cc1OCc1ccccc1 [compound 63]
Pf3D7 IC50 [8]: lost activity against Plasmodium
pIC50 (G9a [4]; [12]): < 6.00

Structure (SMILES): COc1cc2c(NC3CCN(C)CC3)nc(N3CCCN(C)CC3)nc2cc1OCCCN1CCCCC1 [compound 64]
G9a activity in cells [10]: moderate G9a activity in cells
pIC50 ([3]; P. falciparum 3D7): < 5.70

Structure (SMILES): COc1cc2c(NC3CCN(C)CC3)nc(N3CCCN(C)CC3)nc2cc1OCCCN1CCCC1 [compound 65]
G9a activity in cells [10]: moderate G9a activity in cells
pIC50 ([3]; P. falciparum 3D7): < 5.70

Structure (SMILES): COc1cc2c(NC3CCN(C)CC3)nc(N3CCCN(C)CC3)nc2cc1OCCCN(C)C [compound 66, reference compound]
pIC50 ([3]; P. falciparum 3D7): < 5.70

Structure (SMILES): COc1cc2c(NC3CCN(C)CC3)nc(N3CCCN(C)CC3)nc2cc1OCCN(C)C [compound 67]
pIC50 ([3]; P. falciparum 3D7): < 5.70

Structure (SMILES): COCCCCOc1cc2nc(N3CCCN(C)CC3)nc(NC3CCN(C)CC3)c2cc1OC [compound 71]
pIC50 (G9a [11]): < 5.00

Structure (SMILES): COc1cc2nc(N3CCN(C)CC3)cc(NC3CCN(C)CC3)c2cc1OC [compound 91, 6,7-Dimethoxy-2-(4-methylpiperazin-1-yl)-N-(1-methylpiperidin-4-yl)quinolin-4-amine]
pIC50 (G9a [4]; [12]): 7.52
